{"source": "paper PMC11277489", "about": "“Novel Piperazine Derivatives of Vindoline as Anticancer Agents” (International Journal of Molecular Sciences, 2024)", "data": [{"test_system": "NCI-H322M", "test": "NCI60 one-dose screen (10 μM), Non-small Cell Lung Cancer", "type": "cell-based", "details": "Homo sapiens, 10 μM, Non-small Cell Lung Cancer, read-out: Growth percent rate", "units": {"activity at 10 µM": "%"}, "values": [{"smiles": "CC[C@]12C=CCN3CC[C@@]4(c5ccc(OC)cc5N(C)[C@H]4[C@@](O)(C(=O)OC)[C@@H]1OC(=O)CCCN1CCN(Cc4ccc(F)cc4)CC1)[C@@H]32", "note": "[Compound 24]", "activity at 10 µM": 71.7}]}, {"test_system": "HCT-116", "test": "NCI60 one-dose screen (10 μM), Colon Cancer", "type": "cell-based", "details": "Homo sapiens; 10 μM; HCT-116, Colon Cancer; read-out: Growth percent rate", "units": {"activity at 10 µM": "%"}, "values": [{"smiles": "CC[C@]12C=CCN3CC[C@@]4(c5ccc(OC)cc5N(C)[C@H]4[C@@](O)(C(=O)OC)[C@@H]1OC(=O)CCCN1CCN(Cc4ccc(F)cc4)CC1)[C@@H]32", "note": "[Compound 24]", "activity at 10 µM": 24.1}]}, {"test_system": "SW-620", "test": "NCI60 one-dose screen (10 μM), Colon Cancer", "type": "cell-based", "details": "Homo sapiens; 10 μM; SW-620, Colon Cancer; read-out: Growth percent rate", "units": {"activity at 10 µM": "%"}, "values": [{"smiles": "CC[C@]12C=CCN3CC[C@@]4(c5ccc(OC)cc5N(C)[C@H]4[C@@](O)(C(=O)OC)[C@@H]1OC(=O)CCCN1CCN(Cc4ccc(F)cc4)CC1)[C@@H]32", "note": "[Compound 24]", "activity at 10 µM": 64.3}]}, {"test_system": "HS 578T", "test": "NCI60 one-dose screen (10 μM), Breast Cancer", "type": "cell-based", "details": "Homo sapiens; 10 μM; HS 578T, Breast Cancer; read-out: Growth percent rate", "units": {"activity at 10 µM": "%"}, "values": [{"smiles": "CC[C@]12C=CCN3CC[C@@]4(c5ccc(OC)cc5N(C)[C@H]4[C@@](O)(C(=O)OC)[C@@H]1OC(=O)CCCN1CCN(Cc4ccc(F)cc4)CC1)[C@@H]32", "note": "[Compound 24]", "activity at 10 µM": 56.4}]}, {"test_system": "SF-295", "test": "NCI60 one-dose screen (10 μM), CNS Cancer", "type": "cell-based", "details": "Homo sapiens; 10 μM; SF-295, CNS Cancer; read-out: Growth percent rate", "units": {"activity at 10 µM": "%"}, "values": [{"smiles": "CC[C@]12C=CCN3CC[C@@]4(c5ccc(OC)cc5N(C)[C@H]4[C@@](O)(C(=O)OC)[C@@H]1OC(=O)CCCN1CCN(Cc4ccc(F)cc4)CC1)[C@@H]32", "note": "[Compound 24]", "activity at 10 µM": 70.2}]}, {"test_system": "SF-539", "test": "NCI60 one-dose screen (10 μM), CNS Cancer", "type": "cell-based, human", "details": "Homo sapiens; 10 μM; SF-539, CNS Cancer; read-out: Growth percent rate", "units": {"activity at 10 µM": "%"}, "values": [{"smiles": "CC[C@]12C=CCN3CC[C@@]4(c5ccc(OC)cc5N(C)[C@H]4[C@@](O)(C(=O)OC)[C@@H]1OC(=O)CCCN1CCN(Cc4ccc(F)cc4)CC1)[C@@H]32", "note": "[Compound 24]", "activity at 10 µM": 14.7}]}, {"test_system": "KM12", "test": "NCI60 one-dose screen (10 μM), Colon Cancer", "type": "cell-based, human", "details": "Homo sapiens; 10 μM; KM12, Colon Cancer; read-out: Growth percent rate", "units": {"activity at 10 µM": "%"}, "values": [{"smiles": "CC[C@]12C=CCN3CC[C@@]4(c5ccc(OC)cc5N(C)[C@H]4[C@@](O)(C(=O)OC)[C@@H]1OC(=O)CCCN1CCN(Cc4ccc(F)cc4)CC1)[C@@H]32", "note": "[Compound 24]", "activity at 10 µM": 45.7}]}, {"test_system": "COLO 205", "test": "NCI60 one-dose screen (10 μM), Colon Cancer", "type": "cell-based, human", "details": "Homo sapiens; 10 μM; COLO 205, Colon Cancer; read-out: Growth percent rate", "units": {"activity at 10 µM": "%"}, "values": [{"smiles": "CC[C@]12C=CCN3CC[C@@]4(c5ccc(OC)cc5N(C)[C@H]4[C@@](O)(C(=O)OC)[C@@H]1OC(=O)CCCN1CCN(Cc4ccc(F)cc4)CC1)[C@@H]32", "note": "[Compound 24]", "activity at 10 µM": -59.6}]}, {"test_system": "CAKI-1", "test": "NCI60 one-dose screen (10 μM), Renal Cancer", "type": "cell-based", "details": "Homo sapiens; 10 μM; CAKI-1, Renal Cancer; read-out: Growth percent rate", "units": {"activity at 10 µM": "%"}, "values": [{"smiles": "CC[C@]12C=CCN3CC[C@@]4(c5ccc(OC)cc5N(C)[C@H]4[C@@](O)(C(=O)OC)[C@@H]1OC(=O)CCCN1CCN(Cc4ccc(F)cc4)CC1)[C@@H]32", "note": "[Compound 24]", "activity at 10 µM": 5.13}]}, {"test_system": "SNB-75", "test": "NCI60 one-dose screen (10 μM), CNS Cancer", "type": "cell-based, human", "details": "Homo sapiens; 10 μM; SNB-75, CNS Cancer; read-out: Growth percent rate", "units": {"activity at 10 µM": "%"}, "values": [{"smiles": "CC[C@]12C=CCN3CC[C@@]4(c5ccc(OC)cc5N(C)[C@H]4[C@@](O)(C(=O)OC)[C@@H]1OC(=O)CCCN1CCN(Cc4ccc(F)cc4)CC1)[C@@H]32", "note": "[Compound 24]", "activity at 10 µM": -0.13}]}, {"test_system": "SN12C", "test": "NCI60 one-dose screen (10 μM), Renal Cancer", "type": "cell-based", "details": "Homo sapiens, 10 μM, Renal Cancer, read-out: Growth percent rate", "units": {"activity at 10 µM": "%"}, "values": [{"smiles": "CC[C@]12C=CCN3CC[C@@]4(c5ccc(OC)cc5N(C)[C@H]4[C@@](O)(C(=O)OC)[C@@H]1OC(=O)CCCN1CCN(Cc4ccc(F)cc4)CC1)[C@@H]32", "note": "[Compound 24]", "activity at 10 µM": 43.9}]}, {"test_system": "LOX IMVI", "test": "NCI60 one-dose screen (10 μM), Melanoma", "type": "cell-based, human", "details": "Homo sapiens; 10 μM; LOX IMVI, Melanoma; read-out: Growth percent rate", "units": {"activity at 10 µM": "%"}, "values": [{"smiles": "CC[C@]12C=CCN3CC[C@@]4(c5ccc(OC)cc5N(C)[C@H]4[C@@](O)(C(=O)OC)[C@@H]1OC(=O)CCCN1CCN(Cc4ccc(F)cc4)CC1)[C@@H]32", "note": "[Compound 24]", "activity at 10 µM": 5.04}]}, {"test_system": "OVCAR-3", "test": "NCI60 one-dose screen (10 μM), Ovarian Cancer", "type": "cell-based", "details": "Homo sapiens; 10 μM; OVCAR-3, Ovarian Cancer; read-out: Growth percent rate", "units": {"activity at 10 µM": "%"}, "values": [{"smiles": "CC[C@]12C=CCN3CC[C@@]4(c5ccc(OC)cc5N(C)[C@H]4[C@@](O)(C(=O)OC)[C@@H]1OC(=O)CCCN1CCN(Cc4ccc(F)cc4)CC1)[C@@H]32", "note": "[Compound 24]", "activity at 10 µM": 50.6}]}, {"test_system": "IGROV1", "test": "NCI60 one-dose screen (10 μM), Ovarian Cancer", "type": "cell-based", "details": "Homo sapiens, IGROV-1; 10 μM; IGROV1, Ovarian Cancer; read-out: Growth percent rate", "units": {"activity at 10 µM": "%"}, "values": [{"smiles": "CC[C@]12C=CCN3CC[C@@]4(c5ccc(OC)cc5N(C)[C@H]4[C@@](O)(C(=O)OC)[C@@H]1OC(=O)CCCN1CCN(Cc4ccc(F)cc4)CC1)[C@@H]32", "note": "[Compound 24]", "activity at 10 µM": 25.1}]}, {"test_system": "UACC-257", "test": "NCI60 one-dose screen (10 μM), Melanoma", "type": "cell-based", "details": "Homo sapiens; 10 μM; UACC-257, Melanoma; read-out: Growth percent rate", "units": {"activity at 10 µM": "%"}, "values": [{"smiles": "CC[C@]12C=CCN3CC[C@@]4(c5ccc(OC)cc5N(C)[C@H]4[C@@](O)(C(=O)OC)[C@@H]1OC(=O)CCCN1CCN(Cc4ccc(F)cc4)CC1)[C@@H]32", "note": "[Compound 24]", "activity at 10 µM": -72.7}]}, {"test_system": "NCI-H522", "test": "NCI60 one-dose screen (10 μM), Non-small Cell Lung Cancer", "type": "cell-based", "details": "Homo sapiens; 10 μM; NCI-H522, Non-small Cell Lung Cancer; read-out: Growth percent rate", "units": {"activity at 10 µM": "%"}, "values": [{"smiles": "CC[C@]12C=CCN3CC[C@@]4(c5ccc(OC)cc5N(C)[C@H]4[C@@](O)(C(=O)OC)[C@@H]1OC(=O)CCCN1CCN(Cc4ccc(F)cc4)CC1)[C@@H]32", "note": "[Compound 24]", "activity at 10 µM": 27.3}]}, {"test_system": "SF-268", "test": "NCI60 one-dose screen (10 μM), CNS Cancer", "type": "cell-based", "details": "Homo sapiens; 10 μM; SF-268, CNS Cancer; read-out: Growth percent rate", "units": {"activity at 10 µM": "%"}, "values": [{"smiles": "CC[C@]12C=CCN3CC[C@@]4(c5ccc(OC)cc5N(C)[C@H]4[C@@](O)(C(=O)OC)[C@@H]1OC(=O)CCCN1CCN(Cc4ccc(F)cc4)CC1)[C@@H]32", "note": "[Compound 24]", "activity at 10 µM": 42.5}]}, {"test_system": "TK-10", "test": "NCI60 one-dose screen (10 μM), Renal Cancer", "type": "cell-based", "details": "Homo sapiens; 10 μM; TK-10, Renal Cancer; read-out: Growth percent rate", "units": {"activity at 10 µM": "%"}, "values": [{"smiles": "CC[C@]12C=CCN3CC[C@@]4(c5ccc(OC)cc5N(C)[C@H]4[C@@](O)(C(=O)OC)[C@@H]1OC(=O)CCCN1CCN(Cc4ccc(F)cc4)CC1)[C@@H]32", "note": "[Compound 24]", "activity at 10 µM": 42.6}]}, {"test_system": "CCRF-CEM", "test": "NCI60 one-dose screen (10 μM), Leukemia", "type": "cell-based", "details": "Homo sapiens, 10 μM, Leukemia, read-out: Growth percent rate", "units": {"activity at 10 µM": "%"}, "values": [{"smiles": "CC[C@]12C=CCN3CC[C@@]4(c5ccc(OC)cc5N(C)[C@H]4[C@@](O)(C(=O)OC)[C@@H]1OC(=O)CCCN1CCN(Cc4ccc(F)cc4)CC1)[C@@H]32", "note": "[Compound 24]", "activity at 10 µM": 12.7}]}, {"test_system": "MDA-MB-435", "test": "NCI60 one-dose screen (10 μM), Melanoma", "type": "cell-based", "details": "Homo sapiens; 10 μM; MDA-MB-435, Melanoma; read-out: Growth percent rate", "units": {"activity at 10 µM": "%"}, "values": [{"smiles": "CC[C@]12C=CCN3CC[C@@]4(c5ccc(OC)cc5N(C)[C@H]4[C@@](O)(C(=O)OC)[C@@H]1OC(=O)CCCN1CCN(Cc4ccc(F)cc4)CC1)[C@@H]32", "note": "[Compound 24]", "activity at 10 µM": 38.7}]}, {"test_system": "A549/ATCC", "test": "NCI60 one-dose screen (10 μM), Non-small Cell Lung Cancer", "type": "cell-based", "details": "Homo sapiens; 10 μM; A549/ATCC, Non-small Cell Lung Cancer; read-out: Growth percent rate", "units": {"activity at 10 µM": "%"}, "values": [{"smiles": "CC[C@]12C=CCN3CC[C@@]4(c5ccc(OC)cc5N(C)[C@H]4[C@@](O)(C(=O)OC)[C@@H]1OC(=O)CCCN1CCN(Cc4ccc(F)cc4)CC1)[C@@H]32", "note": "[Compound 24]", "activity at 10 µM": 51.2}]}]}
